Values of other authors in patent US20090285869A1, “SALT STABLE LECITHIN ORGANOGEL COMPOSITION” (Humco Holding Group, Inc., priority 2008, published 2009).

Details: non-ionic O/W and W/O emulsifiers; scale from 0 to 20

Compound	Approximate HLB value
CCCCCCCCCCCCCCCCCC(=O)OCC(O)CO (stereo not drawn) [Glyceryl Stearate]	~4.0
Ceteareth-12	~13.4
Ceteareth-6	~10.0
Oleth-5	~9.0
CCCCCCCC/C=C\CCCCCCCC(=O)OCC(O)CO (stereo not drawn) [Glyceryl Oleate]	~2.8
Oleth-10	~12.4
CCCCCCCCCCCC(=O)OCC(O)CO (stereo not drawn) [Glyceryl Laurate]	~5.2
Ceteareth-25	~16.2
Oleth-20	~15.5
CCCCCC[C@@H](O)C/C=C\CCCCCCCC(=O)OCC(O)CO (stereo partly drawn) [Glyceryl Ricinoleate]	~2.6
Ceteareth-20	~15.7
Glyceryl Dilaurate	~4.0
